The data set in a line: UC781 drug stability in compounded polyurethane after extrusion and accelerated storage. To be noted: 4-5 week, 60° C., with and without additives. The class given is physicochemical. The source says:
The drug stability in compounded lot #1100032 was also studied after extrusion and under accelerated storage conditions, with and without various antioxidants (Table 3).

Each structure is given as a SMILES string. Entries after “also recorded” stand apart in the source; their conditions may differ.

Consider `CC(C)=CCOc1cc(NC(=S)c2ccoc2C)ccc1Cl` [UC781], for which the “UC781 stability in compounded lot #1100032” value is “Irganox is incompatible with UC781; also recorded: best stability with BHT, EDTA or without any additives”.

Source of the values: US9393311B2, “Intravaginal ring comprising polyurethane composition for drug delivery” (DSM IP ASSETS B.V., priority 2010, dated 2016).
